From patent US7101872B2, “Farnesyl dibenzodiazepinone, and processes for its production” (Ecopia BioSciences, Inc., priority 2003, dated 2006)
≈ marks a conversion by molar mass, not a printed value.

What was measured:
Type in all cases: cell-based
[1] = system: Bacillus subtilis ATCC 23857; assay: MIC broth microdilution; conditions: ATCC23857, 35° C., 24 hrs
Procedure: (§1) The MIC determination of ECO-04601 against bacteria strains (Bacillus subtilis—ATCC 23857; Micrococcus luteus—ATCC 9341) was performed using broth microdilution assay (Methods for Dilution Antimicrobial Susceptibility Tests for Bacteria That Grow Aerobically; Approved Standard-Fifth Edition. NCCLS document M7-A5 (ISBN 1-56238-394-9). NCCLS, 940 West Valley Road, Suite 1400, Wayne, Pa. 19087-1898 USA.). Test compound preparation: […] The first dilution (3.2 mg/ml) was prepared by resuspending 0.5 mg of each test article in 156.25 μl of DMSO. […] Assay plates were incubated at 35° C. for 24 hrs.

[2] = system: Micrococcus luteus ATCC 9341; assay: MIC broth microdilution; conditions: ATCC9341, 35° C., 24 hrs
Procedure: as §1

human 5-LO = molecular target: T1, human 5-LO (Homo sapiens, UniProt P09917); assay: Human 5-lipoxygenase activity in stimulated PMNs (Leukotriene B4 EIA)
T1 construct: Human peripheral blood mononuclear cells (PMNs) were isolated through a Ficoll-Paque density gradient; endogenous in cells; host or cells: human peripheral blood cells (PMNs) isolated by Ficoll-Paque, stimulated with A23187
T1 sequence (P09917 whole entry): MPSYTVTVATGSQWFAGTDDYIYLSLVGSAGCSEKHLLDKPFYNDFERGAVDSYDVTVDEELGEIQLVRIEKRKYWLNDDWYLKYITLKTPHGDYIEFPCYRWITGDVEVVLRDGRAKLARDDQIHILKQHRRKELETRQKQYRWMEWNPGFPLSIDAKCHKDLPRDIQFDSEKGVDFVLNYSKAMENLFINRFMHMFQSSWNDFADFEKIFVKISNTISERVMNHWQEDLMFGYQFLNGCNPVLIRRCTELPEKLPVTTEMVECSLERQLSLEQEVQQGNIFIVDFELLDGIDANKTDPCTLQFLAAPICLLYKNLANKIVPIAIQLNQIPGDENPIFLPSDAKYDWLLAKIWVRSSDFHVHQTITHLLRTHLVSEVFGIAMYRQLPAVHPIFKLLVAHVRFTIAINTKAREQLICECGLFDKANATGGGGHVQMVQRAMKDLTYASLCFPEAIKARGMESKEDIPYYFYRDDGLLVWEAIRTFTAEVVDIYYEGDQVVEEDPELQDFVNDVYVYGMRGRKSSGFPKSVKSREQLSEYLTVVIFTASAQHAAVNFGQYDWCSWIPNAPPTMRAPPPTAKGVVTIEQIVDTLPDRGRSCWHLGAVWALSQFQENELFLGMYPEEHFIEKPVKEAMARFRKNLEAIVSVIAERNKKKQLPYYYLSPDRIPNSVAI
Procedure: Experimental Design: Human peripheral blood mononuclear cells (PMNs) were isolated through a Ficoll-Paque density gradient. PMNs were stimulated by addition A23187 (30 μM final concentration). […] Following incubation, samples were neutralized with NaOH and centrifuged. Leukotriene B4 content was measured in the supernatant using an Enzyme Immunosorbant Assay (EIA) assay.

## CC(C)=CCC/C(C)=C/CC/C(C)=C/CN1C(=O)c2cccc(O)c2Nc2c(O)cc(O)cc21 [ECO-04601, 10-farnesyl-4,6,8-trihydroxy-dibenzodiazepin-11-one]
[1]
  MIC: 12.5 µg/mL (≈ 27 µM)
[2]
  MIC: 6.25 µg/mL (≈ 13.5 µM)
Human 5-LO; A23187-stimulated human PMNs, 15 minutes at 37° C., Leukotriene B4 EIA, read-out: apparent IC50, activity of human 5-LO
  IC50: 930 nM
Human 5-LO; FIG. 8 legend
  EC50: 930 nM
